Assay results as given in patent publication US9682158B2, “Therapy of malignant neoplasias” (priority 2005, dated 2017).
“Also recorded” adds a separate entry of the source.

Experiments:
[1] = system: glioma, pancreas, prostate and breast cancer cells; assay: Cell survival after treatment with radiolabeled L-phenylalanines, further tumor cells; type: cell-based; conditions: in vitro
Method: (§1) After development of a confluent lawn of cells, the cultures were exposed to 0.001-10 μCi/ml of the corresponding radiopharmaceutical for up to 48 hours at 37° C./5% CO2. In a parallel experiment, cells were irradiated using a 6-MeV linear accelerator with doses from 2 to 15 Gy for comparison of cell survival rate of both methods. In order to be able to observe the morphology of the glioma cells, the cells were grown on standard glass slides or in standard culture dishes. Then the medium was removed and the cells were fixed either in 70% ethanol for at least 30 min on ice for flow-cytometric analyses after staining or in 4% neutral buffered formalin for immunohistopathological analyse.
(§2) Human tumor cells grown on standard glass slides were fixed in 4% neutral buffered formalin and stained with the Giemsa method. The cell number was calculated in 10 consecutive high power fields (×40).

[2] = system: human tumor cells, especially malignant gliomas; assay: Flow-cytometric analyses of stained cells after treatment (primary necrosis and apoptosis); type: cell-based; conditions: flow cytometry; compared with external irradiation up to 15 Gy
Method: as §1

glioma [3] = assay: Clinical studies with IPA-123 (SPECT imaging); type: in vivo, human; conditions: 250 MBq
Method: IPA was prepared, as described in example 2. […] Patients were injected with 250 MBq IPA-123, and subsequently imaged at 30 min, 3 h and, where possible, 24 h post injection, using a triple head SPECT camera (Siemens Multi-SPECT III, Erlangen, Germany) with low energy high resolution (LEHR) collimator and iterative reconstruction for cerebral (FIG. 14) imaging. Whole body imaging (FIG. 15) was performed using a Hawkeye dual head SPECT camera (General Electrics Medical Systems, Uppsala, Sweden) with high energy collimator, and iterative reconstruction at 0 min, 1 h and 3 h after injection of 250 MBq IPA-123. SPECT images were acquired using 3-degree angular steps. During a 360° rotation 120 projections were recorded into a 128*128 matrix, with an acquisition time of 40 s per image. Images were reconstructed using manufacturer's software. Anatomical co-alignment with MRI data was performed using HERMES software for nuclear medicine (Nuclear Diagnostics, Stockholm, Sweden). Tumor uptake was visually assessed by two adequately trained, independent nuclear medicine physicians. In discordant cases, a consensus rating was agreed upon. 86% of patients with histologically confirmed tumor show IPA-123 uptake.

glioma [4] = conditions: cited from earlier work
glioma [5] = assay: Clinical study with IPA-124 (PET imaging); type: in vivo, human
Method: IPA was prepared, as described in example 3. […] The patient was injected with 50 MBq IPA-124, and subsequently dynamically imaged at 40-80 min and at 6 days post injection using a dedicated PET camera (Siemens ECAT-ART Scanner, Siemens-CTI, Knoxville, Tenn., USA). SPECT images were acquired using 3-degree angular steps. During a 360° rotation 120 projections were recorded into a 128*128 matrix, with an acquisition time of 40 s per image. Images were reconstructed using manufacturer's software. Anatomical co-alignment with MRI data was performed using HERMES software for nuclear medicine (Nuclear Diagnostics, Stockholm, Sweden) (FIGS. 12a and b). Tumor uptake was visually assessed by two adequately trained, independent nuclear medicine physicians. The patient was operated on day 2 post injection. Post-operative images continue to show strong IPA uptake in projection to the resection margins corresponding to a large portion of tumor tissue which remained in situ. […] Post-operative images were semiquantitatively analysed. A region of interest (ROI) was drawn over the area of increased IPA-124 uptake and compared to a mirrored reference ROI in the contralateral healthy hemisphere using the median sagittal plane as mirror plane (FIG. 12c). Activity concentration in the remaining tumor tissue exceeded activity in the reference region by a factor of 8.86 after 6 days.

[6] = physical half life of the radionuclide; cited from earlier work
[7] = system: orthotopically implanted rat and human gliomas; assay: IPA-131 endoradiotherapy in rats with orthotopically implanted rat and human gliomas, Kaplan-Meier survival; type: in vivo
Method: (§3) The first studies were carried out on in male Wistar rats for C6 rat glioma model and in RNU rats for human glioma models. Wistar rats and RNU rats were from Charles River (Sulzfeld, Germany). The C6 rat glioma model has been previously described in detail. Its biological behavior closely simulates that of human high-grade gliomas.
(§4) One million (10^6) C6 rat glioma cells or 10^6 primary human Tx3868, […], A1207, M059K and U373MG high-grade glioma cells were stereotactically implanted into the left frontal region of Wistar rats or RNU rats while under chloral hydrate anaesthesia as described previously. The animals were held in metabolic cages. […] For each cell line, 6 animals with radiologically (MRI or by gamma camera) confirmed brain tumor were randomly chosen as control animals, a second group of 15 animals were treated with 20 MBq of the radiolabeled L-phenylalanine in two fractions of 10 MBq each via a Teflon catheter in a tail vein 9 and 18 days after tumour implantation. While a third group of 15 rats were irradiated with 4-8 Gy. Survival time was calculated according to the Kaplan-Meier method. Surviving animals were sacrificed after 90 and 180 days. All rat brains were examined histologically after biopsy.

[8] = system: human Tx3868 glioblastomas; assay: IPA-131 endoradiotherapy of orthotopic human Tx3868 glioblastomas; type: in vivo; conditions: dose 20 MBq, RNU rats
Method: as §3, §4
(§5) At autopsy of the rats and mice, besides the brains, other organs were harvested including the heart, lung, liver, spleen, kidney, skin, and colon. […]

glioma [9] = assay: Clinical study with IPA-131 (SPECT imaging); type: in vivo, human; conditions: 100 MBq
Method: IPA was prepared, as described in example 3. […] The patient was injected with 100 MBq IPA-131 and subsequently imaged at 30 min and at 26 h post injection using a Hawkeye dual head SPECT camera (General Electrics Medical Systems, Uppsala, Sweden) with high energy collimator, and iterative reconstruction for cerebral (FIGS. 13a and b) and whole body (FIGS. 13c and d) imaging. SPECT images were acquired using 3-degree angular steps. During a 360° rotation 120 projections were recorded into a 128*128 matrix, with an acquisition time of 40 s per image. Images were reconstructed using manufacturer's software. Tumor uptake was visually assessed by two adequately trained, independent nuclear medicine physicians.

[10] = Clinical and histological safety observation of treated glioma rats; type: in vivo, rat
Method: as §4
At autopsy of the rats and mice, besides the brains, other organs were harvested including the heart, lung, liver, spleen, kidney, skin, and colon. The brains were cut in coronal slices of about 2-3 mm thickness. All tissues from the animals were fixed in 4% neutral buffered formalin and embedded in paraffin wax. Sections were stained with hematoxylin-eosin and Verhoeff-van Gieson and examined histopathologically.

[11] = system: human A1207 glioblastomas; assay: IPA-131 endoradiotherapy of orthotopic human A1207 glioblastomas; type: in vivo; conditions: dose 20 MBq, RNU rats
Method: as §3, §4, §5

C6 rat gliomas = assay: IPA-131 endoradiotherapy of orthotopic C6 rat gliomas; type: in vivo
Method: […] Wistar rats and RNU rats were from Charles River (Sulzfeld, Germany). The C6 rat glioma model has been previously described in detail. Its biological behavior closely simulates that of human high-grade gliomas.
as §4
Magnetic resonance imaging was performed 9 days after tumour implantation (before drug administration) and after the second injection of radiolabeled phenylalanine at day 18 as well as possibly at the day of scarification, using a 2.4-Tesla small animal magnetic resonance tomograph (Brucker Biospec 2.4, Karlruhe, Germany). This system was equipped with a rat coil to hold the animal and transmit homogeneous signals. All rats were imaged while under chloral hydrate anaesthesia (250 mg/kg, i.m.). Multiple axial and coronal images (T1- and T2-weighted) were acquired for 20 min without contrast media. The parameters used were: T1-weighted (TR=100 msec, TE=6.5 msec, flip angle 30°, FOV=2×2 cm, 256×128×64 matrix) and T2-weighted (TR=500 msec, TE=17.5 msec, 1 acquisition, RARE factor 16, FOV=2×2 cm, 256×256×32 matrix, slap-thickness 16 mm).
as §5

[12] = system: Tx 3868 primary human glioma cell line; assay: Cell survival rate after treatment with radiolabeled L-phenylalanines; type: cell-based
Method: (§6) Five human glioma cell lines, one rat glioma cell line, two human prostate cancer cell lines and one human breast cancer cell line were investigated. The human glioma cell lines Tx 3868 and T 5135 (from primary human glioblastoma multiforme), and the rat C6 glioma cells were provided by the Institute of Human Genetics, University of the Saarland (Homburg, Germany). The human high-grade glioma cells, designated as A1207, M059K and U373MG, the human prostate cancer cell lines PC3 and […], and the human breast cancer cell line MCF-07 (American Type Culture Collection, Rockville, Md.), were purchased commercially or provided by the oncological research laboratory of the University Medical Center of Saarland (Homburg, Germany). Cells were cultivated in RPMI-1640 medium or in Dulbecco's modified Eagle medium (sodium pyruvate-free, supplemented with […] and pyridoxine), respectively, supplemented with 10% (v/v) heat-inactivated foetal calf serum (FCS), penicillin (50 U/ml), streptomycin (50 μg/ml), and 50 μl insulin (PromoCell, Heidelberg, Germany). All cells lines were maintained in appropriate flasks in a humidified incubator (5% CO2) at 37° C. Before the experiment, subconfluent cell cultures were trypsinized with a solution of 0.05% trypsin containing 0.02% EDTA but without Ca^2+ and Mg^2+, and resuspended in fresh medium to various cell concentrations after counting by vital staining on a hemocytometer, depending upon the study. Cells were free of mycoplasms. Viability of the cells was >95%.
(§7) After development of a confluent lawn of cells, the cultures were exposed to 0.001-10 μCi/ml of the corresponding radiopharmaceutical for up to 48 hours at 37° C./5% CO2. In a parallel experiment, cells were irradiated using a 6-MeV linear accelerator with doses from 2 to 15 Gy for comparison of cell survival rate of both methods. […]
as §2

[13] = system: T5135 primary human glioma cell line; assay: as above; type: cell-based; conditions: 24 hours exposure, 1 μCi/ml, compared to parallel grown cell cultures without exposure
Method: as §6, §7, §2

Compound: 3,4-[^77Br]bromo-L-Phenylalanine [BrPA-77]
- cell count / cell survival compared with IPA-131 results [1]: Identical results
- induction of primary necrosis and apoptosis [2]: dose dependent induction of primary necrosis and apoptosis, which was more significant than that caused by external irradiation, even with 15 Gy

Compound: 3,4-[^211I]astatine-L-phenylalanine [AtPA-211]
- cell count / cell survival compared with IPA-131 results [1]: Identical results
- induction of primary necrosis and apoptosis [2]: dose dependent induction of primary necrosis and apoptosis, which was more significant than that caused by external irradiation, even with 15 Gy

Compound: N[C@@H](Cc1ccc([123I])cc1)C(=O)O [IPA-123, 4-[^123I]iodo-L-phenylalanine]
- patients with histologically confirmed tumor showing uptake (glioma [3]; visual assessment): 86%
- retention of the tracer in tumor (glioma [3]; patient with glioblastoma): at least 24 h
- accumulation in gliomas (glioma [4]; after intravenous administration, ref [14]): accumulates specifically in low and high grade gliomas with surprisingly marked retention in tumor cells
- blood-brain barrier passage (glioma [4]; after intravenous administration, refs [13, 14]): crosses the blood-brain barrier
- accumulation in the normal cerebral parenchyma (glioma [4]; refs [13, 14]): moderate and decreases rapidly with time

Compound: N[C@@H](Cc1ccc([124I])cc1)C(=O)O [IPA-124, 4-[^124I]iodo-L-phenylalanine]
- tumor uptake / targeting in glioma patient (glioma [5]; 50 MBq, PET 40-80 min and 6 days post injection): retained in high activity concentrations by tumor tissue for prolonged periods; also recorded: Successful tumor targeting
- tolerability (glioma [5]; patient, 50 MBq): well tolerated
- retention of tracer in glioma (glioma [5]; patient, 50 MBq, PET): at least 6 days
- tumor activity relative to reference region (contralateral healthy tissue), factor (glioma [5]; post-operatively remaining tumor tissue, 6 days post injection of 50 MBq): 8.86
- half life [6]: 101 h

Compound: N[C@@H](Cc1ccc([131I])cc1)C(=O)O [IPA-131, 4-[^131I]iodo-L-phenylalanine]
- survival vs maximum tolerable external irradiation ([7]; Kaplan-Meier analysis, 20 MBq vs external irradiation): significantly longer survival than those treated by maximum tolerable doses of external irradiation
- survival time of treated rats vs control group ([7]; all glioma models, 20 MBq i.v. in two fractions): significantly increased
- metabolic and H & E staining of fresh-frozen tissue sections [8]: metabolic normalisation, and histological tumor disappearance
- tumor uptake / targeting in glioma patient (glioma [9]; SPECT 30 min and 26 h post injection): not only taken up but also retained by glioma tissue; also recorded: Successful tumor targeting
- tolerability (glioma [9]; patient): well tolerated
- retention in tumor (glioma [9]; patient, SPECT): at least 26 hours
- seizures ([10]; treated animals): No seizures were observed
- liver and kidney histomorphology ([10]; treated animals, autopsy): did not show any histomorphological abnormality
- adverse therapy-related events and toxic effects ([10]; treated glioma rats, clinical observation): no adverse therapy-related events and no toxic effects were observed clinically
- metabolic and H & E staining of fresh-frozen tissue sections [11]: metabolic normalisation, and histological tumor disappearance
- Kaplan-Meier survival of treated animals group (C6 rat gliomas; C6-glioma rats, 81 days after implantation, p=<0.05): significant longer survival
- tumor disappearance, intravital small animal MRI imaging (C6 rat gliomas; dose 20 MBq, RNU rats): subgaleal and intracerebral tumor disappearance
- tumour on MRI (C6 rat gliomas; surviving C6-glioma rats, 81 days after implantation): no tumour was demonstrable with MRI
- cell survival rate ([12]; 24 hours exposure, 1 μCi/ml, compared to parallel grown cell cultures without exposure): less than 22%
- mode of cell death (cytological) ([12]; primary human glioma cell lines after 24 hours exposure): apoptosis
- cell survival rate [13]: < 20%
- induction of primary necrosis and apoptosis [2]: dose dependent induction of primary necrosis and apoptosis, which was more significant than that caused by external irradiation, even with 15 Gy
